Laboratory results reported in patent US8377993B2, “Insecticidal compound” (Dainihon Jochugiku Co., Ltd., priority 2010, dated 2013).
Entries after “also recorded” stand apart in the source; their conditions may differ.

What was measured:
[1] = system: adults of Blattella germanica; conditions: on the basis of the LD50 value by a microdropping method; cited from earlier work
[2] = system: Female house mosquitoes; test: Petri dish insecticidal efficacy test (KT100 and mortality after 24 hours); assay type: in vivo
Source text: The fractionated component E2-4-2 which is a mixture of compound A and compound B was subjected to the insecticidal efficacy test based on the test conditions shown in Table 3, wherein the concentration of the fractionated component E2-4-2, natural pyrethrin, and dl-d-T80-allethrin was further diluted for the test.

[3] = system: adults of house flies; conditions: cited from earlier work

C=CCC1=C(C)C(OC(=O)C2C(C=C(C)C)C2(C)C)CC1=O (racemic) [dl-d-T80-allethrin]
dose required for killing the adults of Blattella germanica relative to the dose required for killing the adults of house mosquitoes [1]: about 103 times | KT100 value ([2]; Table 4, 0.001 mg/6.15 cm^2): 50 min | The mortality after 24 hours ([2]; Table 4, 0.001 mg/6.15 cm^2): 83% | KT100 value ([2]; Table 4, 0.01 mg/6.15 cm^2): <5 min | The mortality after 24 hours ([2]; Table 4, 0.01 mg/6.15 cm^2): 100% | The mortality after 24 hours ([2]; Table 4, 0.1 mg/6.15 cm^2): 100% | KT100 value ([2]; Table 4, 0.1 mg/6.15 cm^2, time to 100% knockdown): <5 min | KT100 value ([2]; Table 5, 10^−1 mg/6.15 cm^2): <5 min | The mortality after 24 hours ([2]; Table 5, 10^−1 mg/6.15 cm^2): 100% | KT100 value ([2]; Table 5, 10^−2 mg/6.15 cm^2): <5 min | The mortality after 24 hours ([2]; Table 5, 10^−2 mg/6.15 cm^2): 100% | KT100 value ([2]; Table 5, 10^−3 mg/6.15 cm^2): 50 min | The mortality after 24 hours ([2]; Table 5, 10^−3 mg/6.15 cm^2): 83% | KT100 value ([2]; Table 5, 10^−4 mg/6.15 cm^2): >120 min | The mortality after 24 hours ([2]; Table 5, 10^−4 mg/6.15 cm^2): 17% | KT100 value ([2]; Table 7, 10^−5 mg/6.15 cm^2): cannot achieved; also recorded: Survive | The mortality after 24 hours ([2]; Table 7, 10^−5 mg/6.15 cm^2): 0% | dose required for killing the adults of house flies relative to the dose required for killing the adults of house mosquitoes ([3]; on the basis of the LD50 value by a microdropping method): about 17 times | dose required for killing the adult house flies relative to the dose required for killing northern house mosquitoes ([3]; rounded statement): about 20 times
